# Assay results from patent US20220096614A1, “PEPTIDE-INDUCED NK CELL ACTIVATION” (University of Southampton, priority 2019, published 2022).
# System: KIR2DS2
# Assay: KIR2DS2 tetramer staining of peptide-loaded 721.174 cells (flow cytometry)
# Type: binding
# Conditions: 721.174 cells loaded with peptide; KIR2DS2 tetramer conjugated to phycoerythrin; no peptide 10503
# Source text: 721.174 cells were loaded with peptide and then stained using a tetramer of KIR2DS2 conjugated to phycoerythrin. Shown is a flow cytometry histogram plot of the staining of the 721.174 cells in the presence or absence of peptide. Mean fluorescence intensitites are indicated: 14811 for NAPLVHATL versus 10503 for no peptide.
# Chain of KIR2DS2 (P43631 22-245 limits assumed): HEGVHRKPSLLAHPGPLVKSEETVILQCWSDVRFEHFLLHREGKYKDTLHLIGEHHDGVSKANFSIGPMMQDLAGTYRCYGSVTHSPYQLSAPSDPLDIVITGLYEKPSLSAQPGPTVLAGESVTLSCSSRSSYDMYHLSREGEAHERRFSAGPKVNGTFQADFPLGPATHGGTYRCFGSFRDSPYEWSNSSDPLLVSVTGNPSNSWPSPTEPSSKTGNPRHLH
# Chain of KIR2DS2 (P10321 25-366, further chain): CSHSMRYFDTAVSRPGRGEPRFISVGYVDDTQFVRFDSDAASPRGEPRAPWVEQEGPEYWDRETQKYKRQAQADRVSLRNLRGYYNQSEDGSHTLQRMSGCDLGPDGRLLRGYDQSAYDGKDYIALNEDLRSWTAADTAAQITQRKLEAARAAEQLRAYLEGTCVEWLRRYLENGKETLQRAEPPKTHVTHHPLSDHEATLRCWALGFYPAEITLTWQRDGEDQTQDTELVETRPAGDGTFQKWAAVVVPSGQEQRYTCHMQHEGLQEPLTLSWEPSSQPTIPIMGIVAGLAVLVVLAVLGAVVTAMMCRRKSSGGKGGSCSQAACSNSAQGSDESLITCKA
# Chain of KIR2DS2 (P61769 21-119 partner): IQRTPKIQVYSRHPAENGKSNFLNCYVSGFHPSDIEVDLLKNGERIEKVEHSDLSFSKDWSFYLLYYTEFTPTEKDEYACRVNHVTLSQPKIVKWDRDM
sequence,measurement,value
NAPLVHATL [peptide derived from Exportin-1 (XPO1)],Mean fluorescence intensity of KIR2DS2 tetramer staining,14811
